Results as given in patent US7396849B2, “4-(Condensed cyclicmethyl)-imidazole-2-thiones acting as α2 adrenergic agonists” (Allergan, Inc., priority 2004, dated 2008).

Key:
Type in all cases: cell-based
Conditions in all cases: NIH-3T3 cells, ratio of maximal effect to that of standard full agonist brimonidine, NA = not active below 10 micromolar
[1] = target: T1, alpha2B adrenergic receptors (Homo sapiens, UniProt P18089); test: RSAT assay (Receptor Selection and Amplification Technology), alpha2B
T1 construct: expressed in transfected cells; host or cells: NIH-3T3 cells
T1 sequence (P18089 1-450): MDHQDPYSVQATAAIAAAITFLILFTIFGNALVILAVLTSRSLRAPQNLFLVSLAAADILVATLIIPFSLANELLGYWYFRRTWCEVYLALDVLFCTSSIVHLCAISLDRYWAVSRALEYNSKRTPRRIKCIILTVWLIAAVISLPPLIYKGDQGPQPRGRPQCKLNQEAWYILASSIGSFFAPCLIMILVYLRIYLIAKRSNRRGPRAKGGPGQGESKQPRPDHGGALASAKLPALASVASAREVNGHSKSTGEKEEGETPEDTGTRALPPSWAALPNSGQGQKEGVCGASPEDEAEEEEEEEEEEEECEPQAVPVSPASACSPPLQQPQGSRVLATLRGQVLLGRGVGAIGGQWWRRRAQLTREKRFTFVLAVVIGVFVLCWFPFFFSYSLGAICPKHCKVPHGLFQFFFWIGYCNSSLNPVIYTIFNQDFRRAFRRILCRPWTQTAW
Source text: (§1) The imidazole-2-thione compounds of the invention are agonists of alpha2 adrenergic receptors. Many compounds of the invention are specific or selective agonists of alpha2B and/or to a lesser extent alpha2C adrenergic receptors, in preference over alpha2A adrenergic receptors. […] 76, pp. 308-311 (incorporated herein by reference) and is also described below. Another reference pertinent to this assay is Conklin et al. (1993) Nature 363:274-6, Receptor Selection and Amplification Technology (RSAT) assay, also incorporated herein by reference.
(§2) The RSAT assay measures a receptor-mediated loss of contact inhibition that results in selective proliferation of receptor-containing cells in a mixed population of confluent cells. The increase in cell number is assessed with an appropriate transfected marker gene such as β-galactosidase, the activity of which can be easily measured in a 96-well format. Receptors that activate the G protein, Gq, elicit this response. Alpha2 receptors, which normally couple to Gi, activate the RSAT response when coexpressed with a hybrid Gq protein that has a Gi receptor recognition domain, called Gq/i5.
(§3) NIH-3T3 cells are plated at a density of 2×10^6 cells in 15 cm dishes and maintained in Dulbecco's modified Eagle's medium supplemented with 10% calf serum. One day later, cells are cotransfected by calcium phosphate precipitation with mammalian expression plasmids encoding p-SV-β-galactosidase (5-10 μg), receptor (1-2 μg) and G protein (1-2 μg). 40 μg salmon sperm DNA may also be included in the transfection mixture. Fresh media is added on the following day and 1-2 days later, cells are harvested and frozen in 50 assay aliquots. Cells are thawed and 100 μl added to 100 μl aliquots of various concentrations of drugs in triplicate in 96-well dishes. Incubations continue 72-96 hr at 37° C. After washing with phosphate-buffered saline, β-galactosidase enzyme activity is determined by adding 200 μl of the chromogenic substrate (consisting of 3.5 mM o-nitrophenyl-β-D-galactopyranoside and 0.5% nonidet P-40 in phosphate buffered saline), incubating overnight at 30° C. and measuring optical density at 420 nm. The absorbance is a measure of enzyme activity, which depends on cell number and reflects a receptor-mediated cell proliferation. The efficacy or intrinsic activity is calculated as a ratio of the maximal effect of the drug to the maximal effect of a standard full agonist for each receptor subtype. Brimonidine, also called UK14304, the chemical structure of which is shown below, is used as the standard agonist for the alpha2A, alpha2B and alpha2C receptors.
(§4) The results of the RSAT assay with several exemplary compounds of the invention are disclosed in Table 1 above together with the chemical formulas of these examplary compounds. NA stands for “not active” at cohcentrations less than 10 micromolar.

[2] = target: T2, alpha2C adrenergic receptors (Homo sapiens, UniProt P18825); test: RSAT assay (Receptor Selection and Amplification Technology), alpha2C
T2 construct: expressed in transfected cells; host or cells: NIH-3T3 cells
T2 sequence (P18825 1-462): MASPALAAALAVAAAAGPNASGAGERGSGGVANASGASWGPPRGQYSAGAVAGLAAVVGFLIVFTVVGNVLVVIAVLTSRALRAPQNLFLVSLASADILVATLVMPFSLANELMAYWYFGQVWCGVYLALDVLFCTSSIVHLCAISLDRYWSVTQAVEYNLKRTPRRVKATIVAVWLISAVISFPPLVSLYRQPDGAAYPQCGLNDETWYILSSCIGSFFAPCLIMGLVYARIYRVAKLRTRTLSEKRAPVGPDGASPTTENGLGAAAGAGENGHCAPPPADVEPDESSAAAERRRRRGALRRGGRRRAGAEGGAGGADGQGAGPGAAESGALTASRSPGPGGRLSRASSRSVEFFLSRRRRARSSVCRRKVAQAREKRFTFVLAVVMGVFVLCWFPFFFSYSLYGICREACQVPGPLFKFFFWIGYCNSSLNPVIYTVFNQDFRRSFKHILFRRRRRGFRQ
Source text: as §1, §2, §3, §4

[3] = target: T3, alpha2A adrenergic receptors (Homo sapiens, UniProt P08913); test: RSAT assay (Receptor Selection and Amplification Technology), alpha2A
T3 construct: expressed in transfected cells; host or cells: NIH-3T3 cells
T3 sequence (P08913 1-465): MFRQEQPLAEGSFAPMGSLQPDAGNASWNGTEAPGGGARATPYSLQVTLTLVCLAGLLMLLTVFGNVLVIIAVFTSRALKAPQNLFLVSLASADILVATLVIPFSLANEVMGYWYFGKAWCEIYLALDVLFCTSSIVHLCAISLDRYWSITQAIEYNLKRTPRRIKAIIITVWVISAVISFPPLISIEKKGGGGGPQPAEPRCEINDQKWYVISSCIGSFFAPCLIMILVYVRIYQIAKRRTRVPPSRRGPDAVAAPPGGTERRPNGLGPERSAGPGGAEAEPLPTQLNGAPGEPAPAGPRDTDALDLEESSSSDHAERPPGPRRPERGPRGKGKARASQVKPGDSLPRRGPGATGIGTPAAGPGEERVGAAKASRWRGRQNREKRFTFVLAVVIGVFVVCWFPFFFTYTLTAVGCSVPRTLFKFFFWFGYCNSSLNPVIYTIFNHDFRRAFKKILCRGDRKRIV
Source text: as §1, §2, §3, §4

Row | SMILES | Intrinsic Activity Alpha 2B [1] | Intrinsic Activity Alpha 2C [2] | Intrinsic Activity Alpha 2A [3]
1 | CC(c1c[nH]c(=S)[nH]1)c1cccc2ncccc12 (single isomer, unassigned; (+)) [Compound 14, (+)-4-(1-quinolin-5-yl-ethyl)-1,3-dihydro-imidazole-2-thione] | 0.86 |  | 
2 | S=c1[nH]cc(Cc2cccc3c2OCCO3)[nH]1 [Compound 1, 4-(2,3-dihydro-benzo[1,4]dioxin-5-ylmethyl)-1,3-dihydro-imidazole-2-thione] | 0.94 | 0.56 | 0.44
3 | CC(c1c[nH]c(=S)[nH]1)c1cccc2c1OCCO2 (stereo not drawn) [Compound 2, 4-[1-(2,3-dihydro-benzo[1,4]dioxin-5-yl)-ethyl]-1,3-dihydro-imidazole-2-thione] | 1.38 | 0.48 | 0.45
4 | CC(c1c[nH]c(=S)[nH]1)c1cccc2c1OCO2 (stereo not drawn) [Compound 3, 4-(1-benzo[1,3]dioxol-4-yl-ethyl)-1,3-dihydro-imidazole-2-thione] | 0.97 | 0.77 | 0.56
5 | CC(c1c[nH]c(=S)[nH]1)c1cccc2cccnc12 (stereo not drawn) [Compound 4, 4-(1-quinolin-8-yl-ethyl)-1,3-dihydro-imidazole-2-thione] | 1.03 | 0.62 | 0.80
6 | S=c1[nH]cc(Cc2ccc3c(c2)OCO3)[nH]1 [Compound 5, 4-benzo[1,3]dioxol-5-ylmethyl-1,3-dihydro-imidazole-2-thione] | 1.05 |  | 
7 | S=c1[nH]cc(Cc2cccc3ccccc23)[nH]1 [Compound 6, 4-naphthalen-1-ylmethyl-1,3-dihydro-imidazole-2-thione] | 0.73 | 0.55 | 0.48
8 | S=c1[nH]cc(Cc2cccc3cccnc23)[nH]1 [Compound 8, 4-quinolin-8-ylmethyl-1,3-dihydro-imidazole-2-thione] | 1.01 | 0.75 | 0.93
9 | S=c1[nH]cc(Cc2cccc3ncccc23)[nH]1 [Compound 9, 4-quinolin-5-ylmethyl-1,3-dihydro-imidazole-2-thione] | 0.74 |  | 
10 | CC(c1c[nH]c(=S)[nH]1)c1cccc2ccccc12 (stereo not drawn) [Compound 10, 4-(1-naphthalen-1-yl-ethyl)-1,3-dihydro-imidazole-2-thione] | 1.21 |  | 0.52
11 | S=c1[nH]cc(Cc2ccc3ccccc3c2)[nH]1 [Compound 11, 4-naphthalen-2-ylmethyl-1,3-dihydro-imidazole-2-thione] | 0.94 |  | 
12 | CC(c1ccc2c(c1)OCCO2)c1c[nH]c(=S)[nH]1 (stereo not drawn) [Compound 12, 4-[1-(2,3-dihydro-benzo[1,4]dioxin-6-yl)-ethyl]-1,3-dihydro-imidazole-2-thione] | 1.15 |  | 0.54
13 | S=c1[nH]cc(Cc2ccc3c(c2)CCCS3)[nH]1 [Compound 13, 4-thiochroman-6-ylmethyl-1,3-dihydro-imidazole-2-thione] | 0.95 |  | 
14 | S=c1[nH]cc(Cc2cccc3nsnc23)[nH]1 [Compound-16, 4-benzo[1,2,5]thiadiazol-4-ylmethyl-1,3-dihydro-imidazole-2-thione] | 1.22 | 0.69 | 
15 | CC(c1c[nH]c(=S)[nH]1)c1cccc2nsnc12 (stereo not drawn) [Compound-17, 4-(1-benzo[1,2,5]thiadiazol-4-yl-ethyl)-1,3-dihydro-imidazole-2-thione] | 0.98 |  | 
16 | Cc1c(C(C)c2c[nH]c(=S)[nH]2)ccc2cccnc12 (stereo not drawn) [Compound-18, 4-[1-(8-methyl-quinolin-7-yl)-ethyl]-1,3-dihydro-imidazole-2-thione] | 1.05 | 0.41 | 0.80
